Values of other authors as cited in patent US20250221905A1, “HAIR CARE COMPOSITION” (Conopco, Inc., d/b/a UNILEVER, priority 2022, published 2025).

Tests used:
[1] = supplier Croda
5α-reductase = details: background statement

Row | Compound | HLB value [1] | sebum excess action modeled by 5α-reductase evaluation (5α-reductase)
1 | Steareth-2 [Brij S2] | 4.9 | 
2 | CCCCCCCC(=O)NCC(=O)O [Capryloyl glycine, N-(1-oxooctyl) glycine] |  | reduce sebum excess action
3 | Oleth-20 [Brij O20] | 15.5 | 
4 | Polysorbate 85 [Tween 85] | 11 | 
